The text below walks through data of US10954239B2, “Imidazoquinoline amine derivatives, pharmaceutical compositions and therapeutic methods thereof” (CanWell Biotech Limited, priority 2019, dated 2021).

The assay deals with human PBMC. Put plainly: TLR7/8 agonists induce cytokine release in human PBMC (ELISA of culture supernatant, 24 h). The class given is cell-based. As to conditions: minimum effective concentration: lowest concentration inducing cytokine at least 2x negative control, tested 0.0152-100 μM. How it is done:
Example 13. TLR7/8 agonists induce IFN-gamma and TNF-alpha release in human PBMC
The system is used to assess the cytokines release. Activity is based on the measurement of interferon-gamma (IFN-γ) and tumor necrosis factor-alpha (TNF-α) secreted into culture media.
Fresh human blood was diluted with the same volume of PBS, 15 mL Lymphoprep was added into a Sepmate tube, then 30 mL diluted blood was added on the top gently without disturbing the interface.
The Sepmate tube was centrifuged for 25 min at 1000×g at RT with brake off.
The buffy coat containing peripheral blood mononuclear cells (PBMCs) was collected from Sepmate tube and transferred into a new tube, and the cells were washed with 40 mL PBS twice and centrifuged at 350×g for 5 min.
PBMCs were resuspended in complete culture medium at a density of 2E6/mL.
The compounds are solubilized in dimethyl sulfoxide (DMSO) and diluted into indicated concentration with complete culture medium.
2*10^5 PBMCs (in 100 μL) were added to each well of 96-well flat bottom plate.
2× final concentration of 3-fold serial diluted compounds (in 100 μL) were added to indicated wells and final volume was 200 μL.
The plate was covered with sterile lids, mixed gently and then incubated for 24 h at 37° C./5% CO2 incubator.
Following incubation, the plates was centrifuged for 5 min. at 400×g. The cell-free culture Supernatant was removed into a non-sterile polypropylene plate. Samples are maintained at −80° C. until analysis. The samples were analyzed for TNF-α and IFN-γ by ELISA according to the direction.
TNF-α and IFN-α were analyzed by ELISA. IFN-α concentration was determined by ELISA using a Human IFN-α ELISA Kit from R&D Systems (Catalog #41100-2) and read on VICTOR Nivo™ from PerkinElmer. Results were expressed in pg/mL. TNF-α concentration was determined by ELISA using a Human TNF-alpha ELISA MAX™ Deluxe from BioLegend (Catalog #430205) and read on VICTOR Nivo™ from PerkinElmer. Results were expressed in pg/mL.
Specifically, the MEC of each compound (micromolar) was determined as the lowest concentration of the compound that induced a measured cytokine response at a level ([…]) that was at least 2× greater than that observed with the negative control wells.
A general note: An ELISA detects its analyte on a solid surface through an enzyme-linked reagent.

Where [1] appears, read: read-out: MEC to induce cytokine: IFN-alpha.
Where [2] appears, read: read-out: MEC to induce cytokine: TNF-alpha.

Where two headings read alike, the source gives them in different places.

Regarding `CCCCCCCCCCCCCCCCCNC(=O)C(=O)NCCCCOn1c(CCCC)nc2c(N)nc3ccccc3c21` [Example 1, N1-(4-((4-amino-2-butyl-1H-imidazo[4,5-c]quinolin-1-yl)oxy)butyl)-N2-heptadecyloxalamide], the minimal effective concentration under setting [1] is greater than 33.3 µM and the minimal effective concentration under setting [2] is 11.1 µM.

`CCCCCCCCCCCCCCCCCNc1c(NCCCCOn2c(CCCC)nc3c(N)nc4ccccc4c32)c(=O)c1=O` [Example 2, 3-((4-((4-amino-2-butyl-1H-imidazo[4,5-c]quinolin-1-yl)oxy)butyl)amino)-4-(heptadecylamino)cyclobut-3-ene-1,2-dione]: the minimal effective concentration reads like this: under setting [1], 0.0152 µM; under setting [2], 0.0457 µM.

Regarding `CCCCCCCCCCCCCCCCN1CCC(C(=O)NCCCCOn2c(CCCC)nc3c(N)nc4ccccc4c32)CC1` [Example 3, N-(4-((4-amino-2-butyl-1H-imidazo[4,5-c]quinolin-1-yl)oxy)butyl)-1-hexadecylpiperidine-4-carboxamide], the minimal effective concentration runs as follows: under setting [1], 0.137 µM; under setting [2], 0.137 µM.

Regarding `CCCCCCCCCCCCCCCCCCN(CCCCOn1c(CCCC)nc2c(N)nc3ccccc3c21)CCCN(C)C` [Example 5, N1-(4-((4-amino-2-butyl-1H-imidazo[4,5-c]quinolin-1-yl)oxy)butyl)-N3,N3-dimethyl-N1-octadecylpropane-1,3-diamine], the minimal effective concentration under setting [1] was found to be 1.23 µM and the minimal effective concentration under setting [2] is 11.1 µM.

For the compound `CCCCCCCCCCCCCCCCCNC(=O)C(=O)N(CCCCOn1c(CCCC)nc2c(N)nc3ccccc3c21)CCCN(C)C` [Example 6, N1-(4-((4-amino-2-butyl-1H-imidazo[4,5-c]quinolin-1-yl)oxy)butyl)-N1-(3-(dimethylamino)propyl)-N2-heptadecyloxalamide], the minimal effective concentration under setting [1] was greater than 100 µM and the minimal effective concentration under setting [2] is greater than 100 µM.

`CCCCCCCCCCCCCCCCCNc1c(N(CCCCOn2c(CCCC)nc3c(N)nc4ccccc4c32)CCCN(C)C)c(=O)c1=O` [Example 7, 3-((4-((4-amino-2-butyl-1H-imidazo[4,5-c]quinolin-1-yl)oxy)butyl)(3-(dimethylamino)propyl)amino)-4-(heptadecylamino)cyclobut-3-ene-1,2-dione]: the minimal effective concentration was 0.0152 µM under setting [1] and 0.41 µM under setting [2].

Take `CCCCCCCCCCCCCCCCCc1nc(CCCCOn2c(CCCC)nc3c(N)nc4ccccc4c32)no1` [Example 10, 2-butyl-1-(4-(5-heptadecyl-1,2,4-oxadiazol-3-yl)butoxy)-1H-imidazo[4,5-c]quinolin-4-amine]: the minimal effective concentration came out at 11.1 µM under setting [1] and 3.7 µM under setting [2].

With `CCCCCCCCCCCCCCCCCc1noc(CCCCOn2c(CCCC)nc3c(N)nc4ccccc4c32)n1` [Example 11, 2-butyl-1-(4-(3-heptadecyl-1,2,4-oxadiazol-5-yl)butoxy)-1H-imidazo[4,5-c]quinolin-4-amine], the minimal effective concentration worked out at 11.1 µM under setting [1] and 33.3 µM under setting [2].

In the case of `CCCCCCCCCCCCCCCCCN(CCCN(C)C)c1c(NCCCCOn2c(CCCC)nc3c(N)nc4ccccc4c32)c(=O)c1=O` [Example 12, 3-(4-(4-amino-2-butyl-1H-imidazo[4,5-c]quinolin-1-yloxy)butylamino)-4-((3-(dimethylamino)propyl)(heptadecyl)amino)cyclobut-3-ene-1,2-dione], the minimal effective concentration worked out at 0.0152 µM under setting [1] and 0.41 µM under setting [2].
